Our source for the IC50 and EC50 values is ChEMBL document CHEMBL5230155, “Recent contributions of quinolines to antimalarial and anticancer drug discovery research” (Eur J Med Chem, 2021).

pEC50, pIC50: −log10 of the molar value. Values after ≈ are worked out from the molar mass of the structure shown.

In the first test the test system is Plasmodium falciparum. As to the kind of experiment: Antimalarial activity against CQ-resistant Plasmodium falciparum W2.
Conditions: not given
Format: functional, organism-based.
As for `Cc1c(Cl)ccc2cc(/C=C/C(=O)c3cccc(Br)c3)c(Cl)nc12`, the pIC50 (as a rule, the IC50 on a negative log10 scale, so that one unit is a factor of ten) is over 7.30.
The same measure, in the same setting: the result for `Cc1c(Cl)ccc2cc(/C=C/C(=O)c3ccc(Br)s3)c(Cl)nc12` reads over 7.30; that for `Cc1c(Cl)ccc2cc(/C=C/C(=O)c3ccc(Cl)cc3)c(Cl)nc12`, over 7.30.
Still for that read-out and setting: the result for `O=C1c2ccc(N3CCN(CCO)CC3)cc2C(=O)N1CCCNc1ccnc2cc(Cl)ccc12` reads 8.22.
The same measure, in the same setting: the result for `O=C1c2ccc(N3CCN(CCO)CC3)cc2C(=O)N1CCCCNc1ccnc2cc(Cl)ccc12` reads 8.22; that for `O=C1c2ccc(N3CCN(CCO)CC3)cc2C(=O)N1CCCCCCNc1ccnc2cc(Cl)ccc12`, 8.22.
For `O=C1c2cccc(N3CCOCC3)c2C(=O)N1CCCCCCNc1ccnc2cc(Cl)ccc12`, the pIC50 is 8.22.
`CCN(CC)c1ccc2c(c1)C(=O)N(CCC(=O)NCCNc1ccnc3cc(Cl)ccc13)C2=O` showed a pIC50 of 7.01.
The molecule `OCCNCCNc1ccnc2cc(Cl)ccc12` showed a pIC50 of 6.52.
With `O=C1c2ccc(N3CCOCC3)cc2C(=O)N1CCCCCCNc1ccnc2cc(Cl)ccc12`, the pIC50 is 8.22.

Another test concerns MCF7. As to the kind of experiment: Antiproliferative activity against human MCF7 cells. The format is functional, cell-based. The settings on record: Homo sapiens, MCF7.
For the molecule `Cc1cc(C)c(S(=O)(=O)Oc2ccc(Cl)c3cccnc23)c(C)c1`, the pIC50 was 5.86.
The molecule `Cc1cc(S(=O)(=O)c2ccc(C#N)cc2)c2ccccc2n1` had a pIC50 of 5.86.
The same measure, in the same setting: the result for `Cc1cc(S(=O)(=O)c2ccccc2[N+](=O)[O-])c2ccccc2n1` reads 5.86; that for `Cc1ccc(S(=O)(=O)Oc2ccc(Cl)c3cccnc23)cc1`, 5.86.

The test system of the next test is Plasmodium falciparum. The test is described as follows: Antimalarial activity against CQ-sensitive Plasmodium falciparum 3D7. Format: functional, organism-based.
Conditions: not given
For `O=C(/C=C/C(=O)Nc1cccc(F)c1)NCCCCNc1cc(C(F)(F)F)nc2c(C(F)(F)F)cccc12`, the negative-log IC50 (pIC50) is 5.54.
Regarding `OCCNCCNc1ccnc2cc(Cl)ccc12`, the pIC50 is 7.72.

Another test concerns Plasmodium falciparum. The test is described as follows: Antimalarial activity against CQ-sensitive Plasmodium falciparum D6. Format: functional, organism-based.
Conditions: not given
Molecule `Cc1c(Cl)ccc2cc(/C=C/C(=O)c3cccc(Br)c3)c(Cl)nc12` had a pIC50 of over 7.30.
For the molecule `Cc1c(Cl)ccc2cc(/C=C/C(=O)c3ccc(Br)s3)c(Cl)nc12`, the pIC50 was over 7.30.
Same read-out and setting: in the case of `Cc1c(Cl)ccc2cc(/C=C/C(=O)c3ccc(Cl)cc3)c(Cl)nc12` it was over 7.30.
On to `COc1ccc(Nc2ccnc3cc(-c4ccc(S(=O)(=O)N5CCN(C)CC5)cc4)ccc23)cc1Cl`, for which the pEC50 – broadly, −log10 of the EC50, conventionally taken in molar units – is 7.92.

A further test has as its system Plasmodium falciparum. The test is described as follows: microbe, parasite or virus in culture.
Conditions: not given
Take `O=C(NNC(=S)Nc1c(F)cccc1F)c1cc(-c2ccccc2Br)nc2c(Cl)cc(C(F)(F)F)cc12`: it took 0.1 µg/mL (≈ 0.162 µM) to reach half-maximal inhibition (IC50).
On to `OCc1cc(-c2cn(-c3ccc(Cl)cc3)nc2-c2ccccc2)nc2ccccc12`, for which the IC50 (commonly the concentration at which inhibition is half-maximal) worked out at 0.092 µg/mL (≈ 0.223 µM).
`CC(C)NC(=S)NNC(=O)c1cc(-c2ccccc2Cl)nc2ccccc12` yielded an IC50 of under 0.3 µg/mL.
With `O=C(NNC(=S)Nc1cccc(Cl)c1)c1cc(-c2ccccc2Cl)nc2ccccc12`, the IC50 is under 0.3 µg/mL.
With `O=C(NNC(=S)Nc1cc(Cl)cc(Cl)c1)c1cc(-c2ccc(F)cc2F)nc2cc(Cl)c(F)cc12`, the midpoint of inhibition, the IC50, lay at 0.1 µg/mL (≈ 0.18 µM).
Same read-out and setting: in the case of `O=C(NNC(=S)Nc1ccccc1)c1cc(-c2c(F)cccc2F)nc2ccc(C(F)(F)F)cc12` it was 0.1 µg/mL (≈ 0.199 µM).
Still for that read-out and setting: in the case of `COc1ccc2nc(-c3ccccc3)cc(C(=O)O)c2c1` it was 0.12 µg/mL (≈ 0.43 µM).
For `COc1cccc(NC(=S)NNC(=O)c2cc(-c3ccc(C(F)(F)F)cc3)nc3ccc(F)cc23)c1`, the IC50 was 0.1 µg/mL (≈ 0.194 µM).
Still for that read-out and setting: the result for `OCc1cc(-c2cn(-c3ccc(Cl)cc3Cl)nc2-c2ccccc2)nc2ccccc12` reads 0.036 µg/mL (≈ 0.0807 µM).
Molecule `Cc1ccc2nc(-c3cn(-c4ccc(Cl)cc4)nc3-c3ccccc3)cc(C(=O)NCCCN(C)C)c2c1` displayed an IC50 of 0.0879 µg/mL (≈ 0.168 µM).
On to `O=C(NNC(=S)Nc1ccc([N+](=O)[O-])cc1)c1cc(-c2ccccc2Cl)nc2ccccc12`, for which the IC50 is under 0.3 µg/mL.
Still for that read-out and setting: in the case of `O=C(NNC(=S)Nc1ccc(Cl)cc1Cl)c1cc(-c2ccccc2Cl)nc2ccccc12` it was under 0.3 µg/mL; in that of `Cc1ccc(NC(=S)NNC(=O)c2c(C)nc3ccccc3c2C)cc1`, 0.02 µg/mL (≈ 0.0549 µM); in that of `Cc1nc2ccccc2c(C)c1C(=O)NNC(=S)Nc1ccccc1`, 0.02 µg/mL (≈ 0.0571 µM).
Same read-out and setting: the result for `COc1ccccc1NC(=S)NNC(=O)c1cc(-c2ccccc2Cl)nc2ccccc12` reads under 0.3 µg/mL.
The same measure, in the same setting: the result for `O=C(NNC(=S)Nc1ccc([N+](=O)[O-])cc1)c1cc(-c2ccc(F)cc2F)nc2ccc(F)cc12` reads 0.1 µg/mL (≈ 0.201 µM).
`O=C(O)c1cc(-c2ccccc2)nc2ccc(Cl)cc12`: the IC50 is 0.12 µg/mL (≈ 0.423 µM).
Still for that read-out and setting: the result for `O=C(NNC(=S)NC1CCCCC1)c1cc(-c2ccccc2Cl)nc2ccccc12` reads under 0.3 µg/mL.
